# Results: US12213984B2, “Immunoregulatory agent” (KYUSHU UNIVERSITY, NATIONAL UNIVERSITY CORPORATION, priority 2015, dated 2025)
# Assays:
# DOCK2 = biological target: T1, DOCK2 (Homo sapiens, UniProt Q92608); assay: in-vitro GEF assay, Rac activation by DOCK2 (Experimental Example 1); format: biochemical
# T1 construct: polypeptide fragments corresponding to a DHR-2 domain including the lobe B and the lobe C of DOCK2; Histidine-SUMO (N); made in house; host or cells: E. coli Arctic express DE3 (pET28a); Rac in E. coli BL21 DE3 (pGEX-6P-1)
# T1 sequence (Q92608 1196-1622): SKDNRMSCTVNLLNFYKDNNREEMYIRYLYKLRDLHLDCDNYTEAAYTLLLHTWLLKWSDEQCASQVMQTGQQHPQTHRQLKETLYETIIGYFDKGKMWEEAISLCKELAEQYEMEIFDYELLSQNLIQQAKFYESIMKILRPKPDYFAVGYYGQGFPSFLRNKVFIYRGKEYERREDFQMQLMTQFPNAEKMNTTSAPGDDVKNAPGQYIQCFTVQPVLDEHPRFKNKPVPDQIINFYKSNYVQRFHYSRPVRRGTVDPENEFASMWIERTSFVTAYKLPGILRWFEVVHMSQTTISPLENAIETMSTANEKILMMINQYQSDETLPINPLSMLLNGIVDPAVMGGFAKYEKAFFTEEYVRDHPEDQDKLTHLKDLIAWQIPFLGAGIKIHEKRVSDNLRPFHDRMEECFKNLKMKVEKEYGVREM
# Experimental: The selectivity of the effect of inhibiting the GEF of DOCK2 by cholesterol 3-sulfate was examined. All of DOCK2, Trio, and Tiam are GEFs activating Rac. In the presence of serially diluted cholesterol 3-sulfate, the Rac activation ability of a DOCK2 protein, a Trio protein, and a Tiam protein was measured by in-vitro GEF assay. For the in-vitro GEF assay, a labeled GTP (trade name, “Bodipy-FL-GTP”, manufactured by Invitrogen) was used, because it has a property of increasing fluorescence intensity when binds to Rac by the action of GEF. […]
# During the reaction, the change in the fluorescence intensity of Bodipy-FL-GPT was monitored using a spectrofluorometer Enspire manufactured by PerkinElmer Inc (excitation wavelength: 488 nm, emission wavelength: 514 nm). By calculation, the values obtained by the measurement were corrected such that the fluorescence intensity became 0 at a reaction starting point (0 second).
# Then, by using software (trade name “GraphPad Prism 5”, manufactured by GraphPad Software Inc.), an approximation curve was created which is obtained in a case where the calculated corrected values are plotted on the y-axis and time (t) is plotted on the x-axis. […]
# [1] = test system: inflammatory cells infiltrating into the conjunctiva; assay: ragweed pollen-induced conjunctivitis model in Sult2B1b gene knockout mice, application to the eyes; format: in vivo, mouse; conditions: applied into the eyes before and after topical challenge
# Experimental: An examination was performed on conjunctivitis models induced by sensitizing Sult2B1b gene hetero-type mice (+/−) and Sult2B1b gene knockout mice (−/−) with ragweed pollen and topically challenged with the same antigen at 10 and 12 days later. The eyeball section of each category of the mice was subjected to hematoxylin-eosin (HE) staining and observed using an optical microscope. Thereafter, the Sult2B1b gene knockout mice (−/−) were exposed to ragweed pollen, and cholesterol 3-sulfate was applied into the eyes of the mice before and after the topical challenge with ragweed pollen. […] As a control, a mouse for whom only a vehicle was applied into its eyes was used.
# [2] = test system: inflammatory cells infiltrating into the anterior chamber of eye; assay: UV-induced photokeratitis in Sult2B1b gene knockout mice, eye drops; format: in vivo, mouse; conditions: eye drops before and after UV irradiation
# From the text: As a result of analyzing UV-induced photokeratitis in Sult2B1b gene heterozygous mice (+/−) and Sult2B1b gene knockout mice (−/−), atrophy of the corneal epithelial layer was comparably observed in both mice. Therefore, the eyeball section of each of the mice was subjected to hematoxylin-eosin (HE) staining and observed using an optical microscope. Thereafter, cholesterol 3-sulfate was applied to the eyes of the Sult2B1b gene knockout mouse (−/−) before and after UV irradiation, and the total number of inflammatory cells infiltrating the anterior chamber of eye was counted. As a control, mouse for whom only a vehicle was applied to its eyes was used.
structure (smiles),measurement,setting,value
"CC(C)CCC[C@@H](C)[C@H]1CC[C@H]2[C@@H]3CC=C4C[C@@H](OS(=O)(=O)O)CC[C@]4(C)[C@H]3CC[C@]12C [C3S, cholesterol 3-sulfate]",IC50,DOCK2,6.7 µM
same,infiltration of inflammatory cells into the conjunctiva in response to ragweed pollen,[1],further inhibited
same,UV irradiation-induced infiltration of inflammatory cells into the anterior chamber of eye,[2],inhibited
